Assay results from article PMC9403976, “Elucidating the path to Plasmodium prolyl-tRNA synthetase inhibitors that overcome halofuginone resistance” (Nature Communications, 2022).
“And” between values parts separate entries of the source, which are not always exact repeats. Equal values may be shown once. Read-outs that look alike come from different tables or passages of the source.

Legend:
P. falciparum Dd2-2D4 = assay: P. falciparum asexual blood stage (ABS) growth assay, SYBR Green, 72 h, wild-type parasites; type: cell-based, Plasmodium falciparum; conditions: wildtype (Dd2-2D4); 20 μM
PfcProRS = target: T1, PfcProRS (Plasmodium falciparum, UniProt Q8I5R7); type: binding; conditions: for dose-response signal (normalized), SI Fig 8: single replicates
T1 construct: made in house; host or cells: E. coli SoluBL-21

HsProRS = HsProRS (Homo sapiens, UniProt P07814); assay: TR-FRET ligand displacement assay with tracer MAT379 (CoraFluor-1-Halo and anti-His6 antibody formats); type: binding; set-up: made in house; host or cells: E. coli SoluBL-21; conditions: for TR-FRET dose-response, normalized signal (SI Fig 11): individual replicates
Chain of HsProRS (P07814 996-1512): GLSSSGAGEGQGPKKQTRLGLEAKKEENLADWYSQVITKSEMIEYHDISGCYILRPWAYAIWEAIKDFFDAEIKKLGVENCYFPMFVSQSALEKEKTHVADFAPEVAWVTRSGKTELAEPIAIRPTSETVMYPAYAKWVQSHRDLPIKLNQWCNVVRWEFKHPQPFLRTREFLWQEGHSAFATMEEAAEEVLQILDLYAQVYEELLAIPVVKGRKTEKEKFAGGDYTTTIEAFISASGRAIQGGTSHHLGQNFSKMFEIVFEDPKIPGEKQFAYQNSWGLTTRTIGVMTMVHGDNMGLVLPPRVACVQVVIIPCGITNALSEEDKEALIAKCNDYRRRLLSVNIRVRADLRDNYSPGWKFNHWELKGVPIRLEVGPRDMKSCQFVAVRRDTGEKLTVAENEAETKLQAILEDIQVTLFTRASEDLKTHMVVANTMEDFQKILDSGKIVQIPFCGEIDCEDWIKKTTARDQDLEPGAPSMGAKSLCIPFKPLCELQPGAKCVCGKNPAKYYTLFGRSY

T1 sequence (Q8I5R7 249-746): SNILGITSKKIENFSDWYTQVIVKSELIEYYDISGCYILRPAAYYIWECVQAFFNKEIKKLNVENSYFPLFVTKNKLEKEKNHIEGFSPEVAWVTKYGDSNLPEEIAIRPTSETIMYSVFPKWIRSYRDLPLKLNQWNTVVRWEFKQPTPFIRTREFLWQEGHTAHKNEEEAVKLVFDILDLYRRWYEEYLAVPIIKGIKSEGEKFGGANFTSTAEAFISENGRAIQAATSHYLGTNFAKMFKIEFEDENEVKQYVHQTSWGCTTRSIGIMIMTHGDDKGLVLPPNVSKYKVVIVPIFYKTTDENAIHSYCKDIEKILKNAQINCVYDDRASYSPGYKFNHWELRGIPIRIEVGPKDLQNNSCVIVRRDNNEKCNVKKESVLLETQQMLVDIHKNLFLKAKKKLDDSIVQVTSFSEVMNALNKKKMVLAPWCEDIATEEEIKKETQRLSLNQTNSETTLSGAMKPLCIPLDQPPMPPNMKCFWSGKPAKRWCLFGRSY

With `O=C(NC1Cc2ccccc2C1)c1nccnc1NC(=O)C1CCOCC1` [compound 18] the “% signal at 20 μM, wildtype (Dd2-2D4)” value (P. falciparum Dd2-2D4) was 108%, the “dose-response signal (normalized), SI Fig 8” value (PfcProRS; Log[inhibitor] (M) -5.000) was 3.01E-01 and 4.11E-01 and 4.27E-01 and the “dose-response signal (normalized), SI Fig 8” value (PfcProRS; Log[inhibitor] (M) -5.301) was 6.53E-01 and 6.16E-01 and 6.73E-01. For the same compound, the “dose-response signal (normalized), SI Fig 8” value (PfcProRS; Log[inhibitor] (M) -5.601) was 8.02E-01 and 8.42E-01 and 8.63E-01, the “dose-response signal (normalized), SI Fig 8” value (PfcProRS; Log[inhibitor] (M) -5.904) was 1.01E+00 and 1.00E+00 and 9.12E-01 and the “dose-response signal (normalized), SI Fig 8” value (PfcProRS; Log[inhibitor] (M) -6.208) was 1.03E+00 and 1.00E+00 and 9.60E-01. The “dose-response signal (normalized), SI Fig 8” value (PfcProRS; Log[inhibitor] (M) -6.509) was 1.16E+00 and 9.38E-01 and 1.04E+00, the “dose-response signal (normalized), SI Fig 8” value (PfcProRS; Log[inhibitor] (M) -6.796) was 9.96E-01 and 9.92E-01 and 1.04E+00 and the “dose-response signal (normalized), SI Fig 8” value (PfcProRS; Log[inhibitor] (M) -7.108) was 1.02E+00 and 9.74E-01 and 9.75E-01. For the same compound, the “dose-response signal (normalized), SI Fig 8” value (PfcProRS; Log[inhibitor] (M) -7.409) was 1.01E+00 (2×) and 1.08E+00, the “dose-response signal (normalized), SI Fig 8” value (PfcProRS; Log[inhibitor] (M) -7.710) was 9.82E-01 and 1.05E+00 and 9.42E-01 and the “dose-response signal (normalized), SI Fig 8” value (PfcProRS; Log[inhibitor] (M) -8.000) was 1.03E+00 and 1.10E+00 and 9.98E-01. The “dose-response signal (normalized), SI Fig 8” value (PfcProRS; Log[inhibitor] (M) -8.301) was 9.51E-01 and 1.13E+00 and 9.71E-01, the “dose-response signal (normalized), SI Fig 8” value (PfcProRS; Log[inhibitor] (M) -8.602) was 1.03E+00 and 9.75E-01 and 1.04E+00 and the “dose-response signal (normalized), SI Fig 8” value (PfcProRS; Log[inhibitor] (M) -9.000) was 9.05E-01 and 1.01E+00 and 9.83E-01. For the same compound, the “dose-response signal (normalized), SI Fig 8” value (PfcProRS; Log[inhibitor] (M) -9.301) was 9.17E-01 and 9.20E-01 and 9.09E-01, the “PfcProRS -- best Kd” value (PfcProRS; SI Fig 16a, values on -log scale) was 5.799 and the Kd (HsProRS; HsProRS (KD [nM]) mean, no added proline/ATP (-)) was 7400 nM. The Kd (HsProRS; HsProRS - best Kd, SI Fig 16a, values on -log scale) was 225 nM, the “normalized TR-FRET ligand displacement signal, dose-response replicates (SI Fig 6)” value (HsProRS; Log[inhibitor] (M) -5.000) was 6.96E-01 and 5.92E-01 and 5.43E-01 and the “TR-FRET dose-response, normalized signal (SI Fig 11)” value (HsProRS; Log[inhibitor] (M) -5.000) was 4.20E-01 and 4.17E-01 and 4.61E-01. For the same compound, the “normalized TR-FRET ligand displacement signal, dose-response replicates (SI Fig 6)” value (HsProRS; Log[inhibitor] (M) -5.301) was 8.37E-01 and 8.70E-01 and 8.44E-01, the “TR-FRET dose-response, normalized signal (SI Fig 11)” value (HsProRS; Log[inhibitor] (M) -5.301) was 6.08E-01 and 6.33E-01 and 6.32E-01 and the “normalized TR-FRET ligand displacement signal, dose-response replicates (SI Fig 6)” value (HsProRS; Log[inhibitor] (M) -5.601) was 9.23E-01 and 9.21E-01 and 9.37E-01. The “TR-FRET dose-response, normalized signal (SI Fig 11)” value (HsProRS; Log[inhibitor] (M) -5.601) was 7.60E-01 and 7.57E-01 and 7.53E-01, the “normalized TR-FRET ligand displacement signal, dose-response replicates (SI Fig 6)” value (HsProRS; Log[inhibitor] (M) -5.904) was 9.48E-01 and 1.01E+00 and 1.07E+00 and the “TR-FRET dose-response, normalized signal (SI Fig 11)” value (HsProRS; Log[inhibitor] (M) -5.904) was 8.33E-01 and 8.64E-01 and 8.38E-01. For the same compound, the “normalized TR-FRET ligand displacement signal, dose-response replicates (SI Fig 6)” value (HsProRS; Log[inhibitor] (M) -6.208) was 1.06E+00 (2×) and 1.00E+00, the “TR-FRET dose-response, normalized signal (SI Fig 11)” value (HsProRS; Log[inhibitor] (M) -6.208) was 8.52E-01 and 9.04E-01 and 9.21E-01 and the “normalized TR-FRET ligand displacement signal, dose-response replicates (SI Fig 6)” value (HsProRS; Log[inhibitor] (M) -6.509) was 1.01E+00 and 1.02E+00 and 9.62E-01. The “TR-FRET dose-response, normalized signal (SI Fig 11)” value (HsProRS; Log[inhibitor] (M) -6.509) was 9.56E-01 and 9.24E-01 and 9.57E-01, the “normalized TR-FRET ligand displacement signal, dose-response replicates (SI Fig 6)” value (HsProRS; Log[inhibitor] (M) -6.796) was 9.72E-01 and 9.92E-01 and 1.02E+00 and the “TR-FRET dose-response, normalized signal (SI Fig 11)” value (HsProRS; Log[inhibitor] (M) -6.796) was 9.31E-01 (2×) and 9.72E-01. For the same compound, the “normalized TR-FRET ligand displacement signal, dose-response replicates (SI Fig 6)” value (HsProRS; Log[inhibitor] (M) -7.108) was 9.59E-01 and 8.74E-01 and 9.90E-01, the “TR-FRET dose-response, normalized signal (SI Fig 11)” value (HsProRS; Log[inhibitor] (M) -7.108) was 9.27E-01 and 9.12E-01 and 9.11E-01 and the “normalized TR-FRET ligand displacement signal, dose-response replicates (SI Fig 6)” value (HsProRS; Log[inhibitor] (M) -7.409) was 9.78E-01 and 1.02E+00 and 1.05E+00. For the same compound, the “TR-FRET dose-response, normalized signal (SI Fig 11)” value (HsProRS; Log[inhibitor] (M) -7.409) was 9.66E-01 (2×) and 9.82E-01, the “normalized TR-FRET ligand displacement signal, dose-response replicates (SI Fig 6)” value (HsProRS; Log[inhibitor] (M) -7.710) was 9.30E-01 and 1.05E+00 and 1.11E+00 and the “TR-FRET dose-response, normalized signal (SI Fig 11)” value (HsProRS; Log[inhibitor] (M) -7.710) was 9.81E-01 and 9.38E-01 and 9.42E-01. For the same compound, the “normalized TR-FRET ligand displacement signal, dose-response replicates (SI Fig 6)” value (HsProRS; Log[inhibitor] (M) -8.000) was 9.51E-01 and 9.79E-01 and 1.05E+00, the “TR-FRET dose-response, normalized signal (SI Fig 11)” value (HsProRS; Log[inhibitor] (M) -8.000) was 9.53E-01 and 9.52E-01 and 9.49E-01 and the “normalized TR-FRET ligand displacement signal, dose-response replicates (SI Fig 6)” value (HsProRS; Log[inhibitor] (M) -8.301) was 9.09E-01 and 9.22E-01 and 9.59E-01. For the same compound, the “TR-FRET dose-response, normalized signal (SI Fig 11)” value (HsProRS; Log[inhibitor] (M) -8.301) was 9.20E-01 and 1.00E+00 and 8.97E-01, the “normalized TR-FRET ligand displacement signal, dose-response replicates (SI Fig 6)” value (HsProRS; Log[inhibitor] (M) -8.602) was 9.55E-01 and 9.72E-01 and 1.02E+00 and the “TR-FRET dose-response, normalized signal (SI Fig 11)” value (HsProRS; Log[inhibitor] (M) -8.602) was 9.41E-01 and 9.60E-01 and 9.87E-01. The “normalized TR-FRET ligand displacement signal, dose-response replicates (SI Fig 6)” value (HsProRS; Log[inhibitor] (M) -9.000) was 9.17E-01 and 1.01E+00 and 9.46E-01, the “TR-FRET dose-response, normalized signal (SI Fig 11)” value (HsProRS; Log[inhibitor] (M) -9.000) was 9.26E-01 and 9.53E-01 and 9.30E-01 and the “normalized TR-FRET ligand displacement signal, dose-response replicates (SI Fig 6)” value (HsProRS; Log[inhibitor] (M) -9.301) was 9.60E-01 and 1.07E+00 and 9.73E-01. The “TR-FRET dose-response, normalized signal (SI Fig 11)” value (HsProRS; Log[inhibitor] (M) -9.301) was 9.44E-01 and 9.56E-01 and 9.33E-01.
